The results in this text go back to patent US20160060260A1, “BROMODOMAIN INHIBITORS FOR TREATING DISEASE” (Board of Regents, The University of Texas System, priority 2014, published 2016).

Structures are written as SMILES.

The assay concerns the target T1, Recombinant human His-tagged Trim24-PHD-bromodomain (Homo sapiens, UniProt O15164).
T1 construct: Recombinant human His-tagged Trim24-PHD-bromodomain (produced in-house); made in house
T1 sequence (O15164 824-1006 limits assumed): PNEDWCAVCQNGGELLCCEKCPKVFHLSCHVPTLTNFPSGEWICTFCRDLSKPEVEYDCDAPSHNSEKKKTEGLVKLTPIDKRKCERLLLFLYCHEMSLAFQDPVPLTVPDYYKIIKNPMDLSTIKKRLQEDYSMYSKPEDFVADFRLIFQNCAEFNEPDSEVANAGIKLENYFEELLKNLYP
Briefly: Trim24 AlphaScreen Assay. Type of assay: binding. The conditions noted are these: 5 nM Trim24 protein, 15 nM biotinylated H3K23ac (1-33aa) peptide. In outline: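 His-tagged Trim24-PHD-bromodomain, biotinylated H3K23ac (1-33aa) peptide and compound incubated 1 h at room temperature in 50 mM Hepes pH 7.5, 100 mM NaCl, 0.12 mM Triton X-100.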
In general terms: Alpha assays give light when donor and acceptor beads are brought close together.
In general, IC50 refers to the point on the concentration scale where inhibition reaches its midpoint. Consider `CCCOc1cc(OCCCCCCN)cc(Oc2cc3c(cc2NS(=O)(=O)c2cccc(C(=O)OC)c2)n(C)c(=O)n3C)c1` [Example 191, methyl 3-(N-(6-(3-((6-aminohexyl)oxy)-5-propoxyphenoxy)-1,3-dimethyl-2-oxo-2,3-dihydro-1H-benzo[d]imidazol-5-yl)sulfamoyl)benzoate], for which the IC50 was 10 to 100 nM. In the case of `COC(=O)c1cccc(S(=O)(=O)Nc2cc3c(cc2Oc2cccc(OCC(F)(F)F)c2)n(C)c(=O)n3C)c1` [Example 192, methyl 3-(N-(1,3-dimethyl-2-oxo-6-(3-(2,2,2-trifluoroethoxy)phenoxy)-2,3-dihydro-1H-benzo[d]imidazol-5-yl)sulfamoyl)benzoate], the IC50 is 10 to 100 nM. To `C=CCOc1cccc(S(=O)(=O)Nc2cc3c(cc2Oc2cccc(OCC(F)(F)F)c2)n(C)c(=O)n3C)c1` [Example 193, 3-(allyloxy)-N-(1,3-dimethyl-2-oxo-6-(3-(2,2,2-trifluoroethoxy)phenoxy)-2,3-dihydro-1H-benzo[d]imidazol-5-yl)benzenesulfonamide] belongs 100 to 1000 nM; to `COc1ccc(S(=O)(=O)Nc2cc3c(cc2Oc2cc(OCCCCCCN)cc(OCC(F)(F)F)c2)n(C)c(=O)n3C)cc1OC` [Example 194, N-(6-(3-((6-aminohexyl)oxy)-5-(2,2,2-trifluoroethoxy)phenoxy)-1,3-dimethyl-2-oxo-2,3-dihydro-1H-benzo[d]imidazol-5-yl)-3,4-dimethoxybenzenesulfonamide], 10 to 100 nM; to `COCCCOc1cc(OCC(F)(F)F)cc(Oc2cc3c(cc2NS(=O)(=O)c2ccc(OC)c(OC)c2)n(C)c(=O)n3C)c1` [Example 195], 10 to 100 nM. To `CCCOc1cc(OCCCCN)cc(Oc2cc3c(cc2NS(=O)(=O)c2ccc(OC)c(OC)c2)n(C)c(=O)n3C)c1` [Example 196, N-(6-(3-(4-aminobutoxy)-5-propoxyphenoxy)-1,3-dimethyl-2-oxo-2,3-dihydro-1H-benzo[d]imidazol-5-yl)-3,4-dimethoxybenzenesulfonamide] belongs 1 to 10 nM; to `CCCOc1cc(OCCCCCN)cc(Oc2cc3c(cc2NS(=O)(=O)c2cn(C)cn2)n(C)c(=O)n3C)c1` [Example 197, N-(6-(3-((5-aminopentyl)oxy)-5-propoxyphenoxy)-1,3-dimethyl-2-oxo-2,3-dihydro-1H-benzo[d]imidazol-5-yl)-1-methyl-1H-imidazole-4-sulfonamide], 10 to 100 nM. The value for `CCCOc1cc(OCCCCN)cc(Oc2cc3c(cc2NS(=O)(=O)c2ccccn2)n(C)c(=O)n3C)c1` [Example 198, N-(6-(3-(4-aminobutoxy)-5-propoxyphenoxy)-1,3-dimethyl-2-oxo-2,3-dihydro-1H-benzo[d]imidazol-5-yl)pyridine-2-sulfonamide] was 10 to 100 nM; that for `CCCOc1cc(OCCCCN)cc(Oc2cc3c(cc2NS(=O)(=O)c2cnn(C)c2C)n(C)c(=O)n3C)c1` [Example 199, N-(6-(3-(4-aminobutoxy)-5-propoxyphenoxy)-1,3-dimethyl-2-oxo-2,3-dihydro-1H-benzo[d]imidazol-5-yl)-1,5-dimethyl-1H-pyrazole-4-sulfonamide] was 10 to 100 nM; that for `Cc1c(S(=O)(=O)Nc2cc3c(cc2Oc2cc(OCCCCCCN)cc(OCC(F)(F)F)c2)n(C)c(=O)n3C)cnn1C` [Example 200, N-(6-(3-((6-aminohexyl)oxy)-5-(2,2,2-trifluoroethoxy)phenoxy)-1,3-dimethyl-2-oxo-2,3-dihydro-1H-benzo[d]imidazol-5-yl)-1,5-dimethyl-1H-pyrazole-4-sulfonamide] was 1 to 10 nM.

For `Cn1c(=O)n(C)c2cc(Oc3cc(OCCCCCCN)cc(OCC(F)(F)F)c3)c(NS(=O)(=O)c3cccnc3)cc21` [Example 201, N-(6-(3-((6-aminohexyl)oxy)-5-(2,2,2-trifluoroethoxy)phenoxy)-1,3-dimethyl-2-oxo-2,3-dihydro-1H-benzo[d]imidazol-5-yl)pyridine-3-sulfonamide], the IC50 lay within 1 to 10 nM. The value for `Cn1cnc(S(=O)(=O)Nc2cc3c(cc2Oc2cc(OCCCCCCN)cc(OCC(F)(F)F)c2)n(C)c(=O)n3C)c1` [Example 202, N-(6-(3-((6-aminohexyl)oxy)-5-(2,2,2-trifluoroethoxy)phenoxy)-1,3-dimethyl-2-oxo-2,3-dihydro-1H-benzo[d]imidazol-5-yl)-1-methyl-1H-imidazole-4-sulfonamide] was 1 to 10 nM. Consider `COc1ccc(S(=O)(=O)Nc2cc3c(cc2Oc2cc(OCCCCCCN)cc(OCC(F)(F)F)c2)n(C)c(=O)n3C)cn1` [Example 203, N-(6-(3-((6-aminohexyl)oxy)-5-(2,2,2-trifluoroethoxy)phenoxy)-1,3-dimethyl-2-oxo-2,3-dihydro-1H-benzo[d]imidazol-5-yl)-6-methoxypyridine-3-sulfonamide], for which the IC50 lay within 10 to 100 nM.

In the case of `COCCCOc1cc(OCC(F)(F)F)cc(Oc2cc3c(cc2NS(=O)(=O)c2cnn(C)c2C)n(C)c(=O)n3C)c1` [Example 204, N-(6-(3-(3-methoxypropoxy)-5-(2,2,2-trifluoroethoxy)phenoxy)-1,3-dimethyl-2-oxo-2,3-dihydro-1H-benzo[d]imidazol-5-yl)-1,5-dimethyl-1H-pyrazole-4-sulfonamide], the IC50 was 10 to 100 nM. Turning to `COc1ccc(S(=O)(=O)Nc2cc3c(cc2Oc2cc(OCCCCCCN(C)C)cc(OCC(F)(F)F)c2)n(C)c(=O)n3C)cc1OC` [Example 205, N-(6-(3-((6-(dimethylamino)hexyl)oxy)-5-(2,2,2-trifluoroethoxy)phenoxy)-1,3-dimethyl-2-oxo-2,3-dihydro-1H-benzo[d]imidazol-5-yl)-3,4-dimethoxybenzenesulfonamide], the IC50 lay within 1 to 10 nM.

For the compound `CCCOc1cc(OCCCOC)cc(Oc2cc3c(cc2NS(=O)(=O)c2cn(C)nc2C)n(C)c(=O)n3C)c1` [Example 206, N-(6-(3-(3-methoxypropoxy)-5-propoxyphenoxy)-1,3-dimethyl-2-oxo-2,3-dihydro-1H-benzo[d]imidazol-5-yl)-1,3-dimethyl-1H-pyrazole-4-sulfonamide], the half-inhibitory concentration (IC50) was 10 to 100 nM. To `CCCOc1cc(OCCCOC)cc(Oc2cc3c(cc2NS(=O)(=O)c2cnn(CC)c2)n(C)c(=O)n3C)c1` [Example 207, 1-ethyl-N-(6-(3-(3-methoxypropoxy)-5-propoxyphenoxy)-1,3-dimethyl-2-oxo-2,3-dihydro-1H-benzo[d]imidazol-5-yl)-1H-pyrazole-4-sulfonamide] belongs 10 to 100 nM; to `CCCOc1cccc(Oc2cc3c(cc2NS(=O)(=O)c2cccc(C(=O)O)c2)n(C)c(=O)n3C)c1` [Example 208, 3-(N-(1,3-dimethyl-2-oxo-6-(3-propoxyphenxoy)-2,3-dihydro-1H-benzo[d]imidazol-5-yl)sulfamoyl)benzoic acid], 10 to 100 nM; to `Cc1c(S(=O)(=O)Nc2cc3c(cc2Oc2cc(OCCCCN)cc(OCC(F)(F)F)c2)n(C)c(=O)n3C)cnn1C` [Example 209, N-(6-(3-(4-aminobutoxy)-5-(2,2,2-trifluoroethoxy)phenoxy)-1,3-dimethyl-2-oxo-2,3-dihydro-1H-benzo[d]imidazol-5-yl)-1,5-dimethyl-1H-pyrazole-4-sulfonamide], 1 to 10 nM. For `COc1ccc(S(=O)(=O)Nc2cc3c(cc2Oc2cc(OCCCCN)cc(OCC(F)(F)F)c2)n(C)c(=O)n3C)cc1OC` [Example 210, N-(6-(3-(4-aminobutoxy)-5-(2,2,2-trifluoroerthoxy)phenoxy)-1,3-dimethyl-2-oxo-2,3-dihydro-1H-benzo[d]imidazol-5-yl)-3,4-dimethoxybenzenesulfonamide], the IC50 lay within 10 to 100 nM.
